Test results reported in patent US20250302974A1, “LECTIN-DRUG CONJUGATES” (UNICHEM LABORATORIES LIMITED, priority 2021, published 2025).
Read-outs that look alike come from different tables or passages of the source.

Assays:
[1] = test system: T24 human bladder carcinoma xenograft; test: Histopathological investigation of tumour tissue, T24 xenograft model; type: in vivo, human T24 tumor in nude mice; conditions: G2, 5 mg/kg, Weekly once; 'Moderately Differentiated' wrapped over two lines
Protocol: (§9) Effect of compound of Formula 16 was evaluated using T24 human bladder carcinoma xenograft model.

[2] = test system: T24 human bladder carcinoma xenograft; test: In vivo anti-tumor potential, xenograft model (tumor volume, TGI, %T/C, body weight, survival); conditions: 5 mg/kg, weekly once
Protocol: (§1) In vivo anti-tumor potential of compound of Formula 16 was evaluated using T24 human bladder carcinoma xenograft model in mice by assessing biological endpoints such as tumor growth and tumor growth inhibition.
(§2) Thirty-five healthy female nude mice bearing T24 tumor with volume of ˜100 mm3 were selected, randomized and allocated into five groups (G1-G5, n=7 animals per group). Body weight of each mouse was recorded on the day of randomization and daily till the end of the study. The tumor size was measured weekly twice from the day of test item/reference drug/vehicle dosing till the end of the experiment. Tumor size was measured by digital caliper (MITUTOYO, Japan) by measuring length and width. Body weight and tumor volume data was statistically analysed using two-way ANOVA (Bonferroni Test). Statistical analysis was conducted using PRISM software, version 5.01.p values of <0.05 were considered as statistically significant. Percentage survival proportions were analyzed by “Kaplan Meier” method.

[3] = test system: T24 human bladder carcinoma xenograft; test: Histopathological investigation of tumour tissue; type: in vivo, mice; conditions: 5 mg/kg, weekly once
Protocol: as §9

Th1 cytokines; IgM = test: Effect on immune system (Th1 cytokines, IgM), T24 xenograft model; type: in vivo, mice
Protocol: as §9

[4] = test system: T24 human bladder carcinoma xenograft; test: In vivo anti-tumor potential, T24 human bladder carcinoma xenograft model in female nude mice; conditions: G2, 5 mg/kg, Weekly once
Protocol: as §1, §2

[5] = test system: T24 human bladder carcinoma xenograft; test: Effect on immune system (Th1 cytokines, IgM) in xenograft model; type: in vivo, mice
Protocol: as §9

MDA-MB-231 Breast = test: Cytotoxic effect by MTT assay, 48 h; conditions: Homo sapiens, MDA-MB-231, 48 h
Protocol: (§3) Cells were treated with Test Items at various concentrations (0.0001 μM-10 μM) for 48 h. The cells corresponding to Positive Control group were treated with Doxorubicin at a concentration ranging from 0.1 μM-100 μM. The Untreated cells were used as Control. After 48 h of incubation, the effect of Test Items on cytotoxicity of cells was determined by MTT assay, the plates were taken out and 20 μl of 5 mg/m1 of MTT 3-(4,5-dimethythiazol-2-yl)-2,5-diphenyl tetrazolium bromide solution was added to all the wells. Cells were incubated for 3 h at 37° C. The supernatant was aspirated. 150 μl of DMSO was added to each well to dissolve formazan crystals. The absorbance of each well was then read at 540 nm using Synergy HT micro plate reader.
(§4) The % Cytotoxicity was calculated using the formula:
(§5) Where, X=Absorbance of cells treated with Test Item; R=Absorbance of Control cells (Untreated cells maintained in growth medium only).
(§6) Selectivity Index was calculated using the formula:
(§7) SI=IC50 in Normal cell/IC50 in cancer cell.
(§8) Activity scores of the Selective Index values were categorized as: • Not selective (SI value ≤1) • Moderately selective (1<SI value <5) • Selective (SI value ≥5)

PA-1 Ovary = test: Cytotoxic effect by MTT assay, 48 h; conditions: 48 h
Protocol: as §3, §4, §5, §6, §7, §8

T24 Bladder = test: Cytotoxic effect by MTT assay, 48 h; conditions: Homo sapiens, 48 h
Protocol: as §3, §4, §5, §6, §7, §8

KB Cervix = test: Cytotoxic effect by MTT assay, 48 h; conditions: 48 h
Protocol: as §3, §4, §5, §6, §7, §8

PANC-1 Pancreatic = test: Cytotoxic effect by MTT assay, 48 h; conditions: Homo sapiens, PANC-1, 48 h, read-out: IC50 Values
Protocol: as §3, §4, §5, §6, §7, §8

MG-63 Bone = test: Cytotoxic effect by MTT assay, 48 h; conditions: Homo sapiens, MG-63, 48 h
Protocol: as §3, §4, §5, §6, §7, §8

U251 MG Brain = test: Cytotoxic effect by MTT assay, 48 h; conditions: Homo sapiens, U-251, 48 h
Protocol: as §3, §4, §5, §6, §7, §8

[6] = Cytotoxic effect by MTT assay, 48 h; conditions: human
Protocol: as §3, §4, §5, §6, §7, §8

AGS Stomach = test: Cytotoxic effect by MTT assay, 48 h; conditions: 48 h
Protocol: as §3, §4, §5, §6, §7, §8

HT29 Colon = test: Cytotoxic effect by MTT assay, 48 h; conditions: Homo sapiens, HT-29, 48 h
Protocol: as §3, §4, §5, §6, §7, §8

PBMC Normal = test: Cytotoxic effect by MTT assay, 48 h; conditions: PBMC, 48 h, read-out: IC50 Values
Protocol: as §3, §4, §5

[7] = Cytotoxic effect by MTT assay, 48 h
Protocol: as §3, §4, §5

[8] = Cytotoxic effect by MTT assay, 48 h; conditions: human; remark: listed apart in the source
Protocol: as §3, §4, §5, §6, §7, §8

A549 Lungs = test: Cytotoxic effect by MTT assay, 48 h; conditions: Homo sapiens, A549, 48 h, read-out: IC50 Values
Protocol: as §3, §4, §5, §6, §7, §8

[9] = read-out: Percent cytotoxicity wrt control

For `N.N.[Cl][Pt][Cl]` [Cisplatin], the “Grade (differentiation)” value [1] was “Moderately”, the Percent survival [2] was 100% and the Tumor growth delay [2] was 10.5 days. For the same compound, the “Percent T/C Day 22” value ([2]; Day 22) was 59.18%, the “Percent TGI Day 22” value ([2]; Day 22) was 40.82% and the “Tumor volume Day 22” value ([2]; Day 22) was 622.6 cu · mm. For the same compound, the “Percent body weight change Day 22” value ([2]; Day 22, nude mice bearing T24 tumor) was 6.3%, the Apoptosis [3] was “Mild” and the Grade [3] was 2 (Grade 2 (Moderately Differentiated) - <25-50% cells anaplastic). For the same compound, the “Grade (differentiation in words)” value [3] was “Moderately”, the “IFN gamma (Th1 cytokine)” value (Th1 cytokines; IgM; G2, 5 mg/kg, i.p. (q7dX2)) was 80.8 pg/mL and the “IL-2 (Th1 cytokine)” value (Th1 cytokines; IgM; G2, 5 mg/kg, i.p. (q7dX2)) was 259.3 pg/mL. The “IL-4 (Th2 cytokine)” value (Th1 cytokines; IgM; G2, 5 mg/kg, i.p. (q7dX2)) was 60 pg/mL, the “IL-10 (Th2 cytokine)” value (Th1 cytokines; IgM; G2, 5 mg/kg, i.p. (q7dX2)) was “BLQ” and the IgG (Th1 cytokines; IgM; G2, 5 mg/kg, i.p. (q7dX2)) was 54 ng/mL. For the same compound, the IgM (Th1 cytokines; IgM; G2, 5 mg/kg, i.p. (q7dX2)) was 18 ng/mL, the IgM (Th1 cytokines; IgM; T24 xenograft model) was “reduction in IgM” and the “Percent T/C Day 22 (Test/Control)” value [4] was 59.18%. For the same compound, the “Percent TGI Day 22 (Tumor Growth Inhibition)” value [4] was 40.82%, the “Immunoglobulins IgG” value ([5]; 5 mg/kg, i.p. (q7dX2)) was 54 ng/mL and the “Immunoglobulins IgM” value ([5]; 5 mg/kg, i.p. (q7dX2)) was 18 ng/mL. The “Th1 cytokines IFN gamma” value ([5]; 5 mg/kg, i.p. (q7dX2)) was 80.8 pg/mL, the “Th1 cytokines IL-2” value ([5]; 5 mg/kg, i.p. (q7dX2)) was 259.3 pg/mL and the “Th2 cytokines IL-4” value ([5]; 5 mg/kg, i.p. (q7dX2)) was 60 pg/mL. For the same compound, the “Th2 cytokines IL-10” value ([5]; 5 mg/kg, i.p. (q7dX2)) was “BLQ” and the IgM level ([5]; mouse, in vivo) was “reduction in IgM”.

For `COc1cccc2c1C(=O)c1c(O)c3c(c(O)c1C2=O)C[C@@](O)(C(=O)CO)C[C@@H]3O[C@H]1C[C@H](N)[C@H](O)[C@H](C)O1` [Doxorubicin], the IC50 (MDA-MB-231 Breast; read-out: IC50 Values) was 2.1 µM, the cytotoxicity at 0.1 µM (MDA-MB-231 Breast; [9]) was 3.4% and the cytotoxicity at 1 µM (MDA-MB-231 Breast; [9]) was 68%. For the same compound, the cytotoxicity at 10 µM (MDA-MB-231 Breast; [9]) was 74.3%, the cytotoxicity at 50 µM (MDA-MB-231 Breast; [9]) was 71.3% and the cytotoxicity at 100 µM (MDA-MB-231 Breast; [9]) was 58%. It also gave an IC50 (PA-1 Ovary; read-out: IC50 Values) of 1 µM, a cytotoxicity at 0.1 µM (PA-1 Ovary; [9]) of 19.6% and a cytotoxicity at 1 µM (PA-1 Ovary; [9]) of 62.6%. It also gave a cytotoxicity at 10 µM (PA-1 Ovary; [9]) of 73.2%, a cytotoxicity at 50 µM (PA-1 Ovary; [9]) of 79% and a cytotoxicity at 100 µM (PA-1 Ovary; [9]) of 71.5%. It also gave an IC50 (T24 Bladder; read-out: IC50 Values) of 5.5 µM, a cytotoxicity at 0.1 µM (T24 Bladder; [9]) of 21% and a cytotoxicity at 1 µM (T24 Bladder; [9]) of 34.8%. For the same compound, the cytotoxicity at 10 µM (T24 Bladder; [9]) was 72.8%, the cytotoxicity at 50 µM (T24 Bladder; [9]) was 66.6% and the cytotoxicity at 100 µM (T24 Bladder; [9]) was 52.7%. The IC50 (KB Cervix; read-out: IC50 Values) was 0.6 µM, the cytotoxicity at 0.1 µM (KB Cervix; [9]) was 28.7% and the cytotoxicity at 1 µM (KB Cervix; [9]) was 53.1%. The cytotoxicity at 10 µM (KB Cervix; [9]) was 95.7%, the cytotoxicity at 50 µM (KB Cervix; [9]) was 91.7% and the cytotoxicity at 100 µM (KB Cervix; [9]) was 84.2%. The IC50 (PANC-1 Pancreatic) was 8.2 µM, the IC50 (MG-63 Bone; read-out: IC50 Values) was 0.4 µM and the cytotoxicity at 0.1 µM (MG-63 Bone; [9]) was 35.3%. For the same compound, the cytotoxicity at 1 µM (MG-63 Bone; [9]) was 60.7%, the cytotoxicity at 10 µM (MG-63 Bone; [9]) was 82% and the cytotoxicity at 50 µM (MG-63 Bone; [9]) was 85.5%. It also gave a cytotoxicity at 100 µM (MG-63 Bone; [9]) of 75.5%, an IC50 (U251 MG Brain; read-out: IC50 Values) of 8.1 µM and a cytotoxicity at 0.1 µM (U251 MG Brain; [9]) of -13.5%. For the same compound, the cytotoxicity at 1 µM (U251 MG Brain; [9]) was 41.7%, the cytotoxicity at 10 µM (U251 MG Brain; [9]) was 57.9% and the cytotoxicity at 50 µM (U251 MG Brain; [9]) was 71%. For the same compound, the cytotoxicity at 100 µM (U251 MG Brain; [9]) was 65.6%, the cytotoxicity at 48 h, 0.1 µM [6] was -3.4% and the IC50 (AGS Stomach; read-out: IC50 Values) was 4.3 µM. It also gave a cytotoxicity at 0.1 µM (AGS Stomach; [9]) of 15.6%, a cytotoxicity at 1 µM (AGS Stomach; [9]) of 72.4% and a cytotoxicity at 10 µM (AGS Stomach; [9]) of 74.5%. The cytotoxicity at 50 µM (AGS Stomach; [9]) was 74.8%, the cytotoxicity at 100 µM (AGS Stomach; [9]) was 79% and the IC50 (HT29 Colon; read-out: IC50 Values) was 35.3 µM. The cytotoxicity at 0.1 µM (HT29 Colon; [9]) was 3.2%, the cytotoxicity at 1 µM (HT29 Colon; [9]) was 1.7% and the cytotoxicity at 10 µM (HT29 Colon; [9]) was 32.7%. The cytotoxicity at 50 µM (HT29 Colon; [9]) was 61.9%, the cytotoxicity at 100 µM (HT29 Colon; [9]) was 59.8% and the IC50 (PBMC Normal) was over 100 µM. It also gave a cytotoxicity at 48 h, 0.1 µM [7] of 5.3%, a cytotoxicity at 48 h, 1 µM [7] of 29.3% and a cytotoxicity at 48 h, 10 µM [7] of 37.4%. It also gave a cytotoxicity at 48 h, 50 µM [7] of 40.5%, a cytotoxicity at 48 h, 100 µM [7] of 37.1% and a cytotoxicity at 48 h, 0.1 µM [8] of 3.3%. The IC50 (A549 Lungs) was 11 µM.
